Data on 32 compounds can be found in US7323465B2, “Alkansulfonamides as endothelin antagonists” (Actelion Pharmaceuticals Ltd., priority 2002, dated 2008).

The structures appear in SMILES notation.

Broadly, the IC50 is the concentration needed to halve the response being measured.

The target in experiment [1] is T1, human recombinant ETA receptors (Homo sapiens, UniProt P25101).
T1 construct: expressed in transfected cells; host or cells: CHO cells (microsomal membranes)
T1 sequence (P25101 21-427): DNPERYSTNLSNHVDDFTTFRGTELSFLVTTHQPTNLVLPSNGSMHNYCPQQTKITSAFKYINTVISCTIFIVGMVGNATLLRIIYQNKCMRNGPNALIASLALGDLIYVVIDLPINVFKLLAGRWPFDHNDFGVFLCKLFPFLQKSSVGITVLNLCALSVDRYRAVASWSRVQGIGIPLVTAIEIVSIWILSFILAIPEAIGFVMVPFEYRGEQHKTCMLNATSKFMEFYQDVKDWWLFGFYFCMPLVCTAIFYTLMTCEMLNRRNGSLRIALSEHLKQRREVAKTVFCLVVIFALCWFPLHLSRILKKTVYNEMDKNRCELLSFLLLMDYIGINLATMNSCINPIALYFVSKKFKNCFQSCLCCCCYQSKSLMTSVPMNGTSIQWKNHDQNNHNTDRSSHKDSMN
The experiment in a line: Inhibition of [125I]ET-1 binding to membranes from CHO cells carrying human ETA receptors. The protocol: (§1) 1) Inhibition of Endothelin Binding to Membranes from CHO Cells Carrying Human ET Receptors:
(§2) For competition binding studies, membranes of CHO cells expressing human recombinant ETA or ETB receptors were used.
(§3) The assay was performed in 200 uL 50 mM Tris/HCl buffer, pH 7.4, including 25 mM MnCl2, 1 mM EDTA and 0.5% (w/v) BSA in polypropylene microtiter plates. […] After 2 h, the membranes were filtered on filterplates containing GF/C filters (Unifilterplates from Canberra Packard S.A. Zürich, Switzerland). To each well, 50 uL of scintillation cocktail was added (MicroScint 20, Canberra Packard S.A. Zürich, Switzerland) and the filter plates counted in a microplate counter (TopCount, Canberra Packard S.A. Zürich, Switzerland).
(§4) All the test compounds were dissolved, diluted and added in DMSO.

Experiment [2] addresses T2, human recombinant ETB receptors (Homo sapiens, UniProt P24530).
T2 construct: expressed in transfected cells; host or cells: CHO cells (microsomal membranes)
T2 sequence (P24530 27-442): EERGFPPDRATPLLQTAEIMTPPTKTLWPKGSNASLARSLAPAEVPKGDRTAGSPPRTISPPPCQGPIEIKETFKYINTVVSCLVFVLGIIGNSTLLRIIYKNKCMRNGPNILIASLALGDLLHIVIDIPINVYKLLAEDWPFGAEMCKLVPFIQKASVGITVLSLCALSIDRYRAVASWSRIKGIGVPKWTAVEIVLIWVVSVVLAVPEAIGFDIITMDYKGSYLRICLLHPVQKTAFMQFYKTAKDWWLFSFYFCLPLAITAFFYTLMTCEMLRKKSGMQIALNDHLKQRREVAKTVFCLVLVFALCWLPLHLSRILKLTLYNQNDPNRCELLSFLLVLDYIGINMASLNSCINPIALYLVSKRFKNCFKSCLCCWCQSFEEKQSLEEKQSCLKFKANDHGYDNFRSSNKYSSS
The experiment in a line: Inhibition of [125I]ET-1 binding to membranes from CHO cells carrying human ETB receptors. On the procedure:
as §1, §2, §3, §4
Further: 2.5% DMSO.

For the compound `CCS(=O)(=O)Nc1ncnc(OCCOc2ncc(Br)cn2)c1-c1ccc(C)cc1` [Example 1, ethanesulfonic acid {6-[2-(5-bromo-pyrimidin-2-yloxy)-ethoxy]-5-p-tolyl-pyrimidin-4-yl}-amide], the IC50 in experiment [1] is 3.96 nM; in experiment [2], over 1000 nM.

As for `CCS(=O)(=O)Nc1ncnc(OCCOc2ncc(SC)cn2)c1-c1ccc(C)cc1` [Example 2, ethanesulfonic acid {6-[2-(5-methylsulfanyl-pyrimidin-2-yloxy)-ethoxy]-5-p-tolyl-pyrimidin-4-yl}-amide], the IC50 in experiment [1] turned out to be 5.99 nM; in experiment [2], 989 nM.

In the case of `CCS(=O)(=O)Nc1ncnc(OCCOc2ncc(OC)cn2)c1-c1ccc(C)cc1` [Example 3, ethanesulfonic acid {6-[2-(5-methoxy-pyrimidin-2-yloxy)-ethoxy]-5-p-tolyl-pyrimidin-4-yl}-amide], the IC50 in experiment [1] was 38.2 nM; in experiment [2] it was over 1000 nM.

In the case of `CCCS(=O)(=O)Nc1ncnc(OCCOc2ncc(Br)cn2)c1-c1ccc(C)cc1` [Example 4, n-propanesulfonic acid {6-[2-(5-bromo-pyrimidin-2-yloxy)-ethoxy]-5-p-tolyl-pyrimidin-4-yl}-amide], the IC50 in experiment [1] is 6.34 nM; in experiment [2], over 1000 nM.

For the compound `CCCS(=O)(=O)Nc1ncnc(OCCOc2ncc(SC)cn2)c1-c1ccc(C)cc1` [Example 5, propane-1-sulfonic acid {6-[2-(5-methylsulfanyl-pyrimidin-2-yloxy)-ethoxy]-5-p-tolyo-pyrimidin-4-yl}-amide], the IC50 is 3.6 nM in experiment [1] and over 1000 nM in experiment [2].

On to `CCCS(=O)(=O)Nc1ncnc(OCCOc2ncc(OC)cn2)c1-c1ccc(C)cc1` [Example 6, propane-1-sulfonic acid {6-[2-(5-methoxy-pyrimidin-2-yloxy)-ethoxy]-5-p-tolyl-pyrimidin-4-yl}-amide], for which the values for the IC50 in experiment [1] and in experiment [2] were 17.1 nM and over 1000 nM, respectively.

In the case of `CCS(=O)(=O)Nc1nc(-c2ncccn2)nc(OCCOc2ncc(Br)cn2)c1Oc1ccccc1OC` [Example 7, ethanesulfonic acid [6-[2-(5-bromo-pyrimidin-2-yloxy)-ethoxy]-5-(2-methoxy-phenoxy)-[2,2′]bipyrimidinyl-4-yl]-amide], the IC50 in experiment [1] worked out at 16.3 nM.

In the case of `CCCS(=O)(=O)Nc1nc(-c2ncccn2)nc(OCCOc2ncc(Br)cn2)c1Oc1ccccc1OC` [Example 8], the IC50 in experiment [1] was 11 nM.

For the compound `CCCS(=O)(=O)Nc1nc(-c2ncccn2)nc(OCCOc2ncc(SC)cn2)c1Oc1ccccc1OC` [Example 9, n-propanesulfonic acid [6-[2-(5-methylsulfanyl-pyrimidin-2-yloxy)-ethoxy]-5-(2-methoxy-phenoxy)-[2,2′]bipyrimidinyl-4-yl]-amide], the 50% inhibitory concentration (IC50) in experiment [1] came out at 5.2 nM; in experiment [2], 187 nM.

For the compound `CCCS(=O)(=O)Nc1nc(-c2ncccn2)nc(OCCOc2ncc(OC)cn2)c1Oc1ccccc1OC` [Example 10, n-propanesulfonic acid [6-[2-(5-methoxy-pyrimidin-2-yloxy)-ethoxy]-5-(2-methoxy-phenoxy)-[2,2′]bipyrimidinyl-4-yl]-amide], the IC50 in experiment [1] is 42.6 nM; in experiment [2], 689 nM.

Turning to `CCS(=O)(=O)Nc1nc(-c2ncccn2)nc(OCCOc2ncc(SC)cn2)c1Oc1ccccc1OC` [Example 11, ethanesulfonic acid [6-[2-(5-methylsulfanyl-pyrimidin-2-yloxy)-ethoxy]-5-(2-methoxy-phenoxy)-[2,2′]bipyrimidinyl-4-yl]-amide], the IC50 came to 5.3 nM in experiment [1] and 59 nM in experiment [2].

Consider `CCS(=O)(=O)Nc1nc(-c2ncccn2)nc(OCCOc2ncc(OC)cn2)c1Oc1ccccc1OC` [Example 12, ethanesulfonic acid [6-[2-(5-methoxy-pyrimidin-2-yloxy)-ethoxy]-5-(2-methoxy-phenoxy)-[2,2′]bipyrimidinyl-4-yl]-amide], for which the IC50 in experiment [1] was found to be 59 nM; in experiment [2], 469 nM.

Turning to `COc1ccccc1Oc1c(NS(C)(=O)=O)nc(-c2ncccn2)nc1OCCOc1ncc(Br)cn1` [Example 14], the IC50 in experiment [1] stood at 27 nM.

Turning to `COc1cnc(OCCOc2nc(-c3ncccn3)nc(NS(C)(=O)=O)c2Oc2ccccc2OC)nc1` [Example 15], the IC50 in experiment [1] amounted to 125 nM; in experiment [2], 729 nM.

On to `COc1ccccc1Oc1c(NS(C)(=O)=O)nc(-c2ncccn2)nc1OCCOc1ncc(SC)cn1` [Example 16], for which the figures for the IC50 in experiment [1] and in experiment [2] were 12 nM and 79 nM, respectively.

In the case of `COc1ccccc1Oc1c(NS(C)(=O)=O)ncnc1OCCOc1ncc(Br)cn1` [Example 17], the IC50 in experiment [1] is 33 nM; in experiment [2], 599 nM.

With `COc1cnc(OCCOc2ncnc(NS(C)(=O)=O)c2Oc2ccccc2OC)nc1` [Example 18], the IC50 in experiment [1] was determined as 205 nM; in experiment [2], 841 nM.

`COc1ccccc1Oc1c(NS(C)(=O)=O)ncnc1OCCOc1ncc(SC)cn1` [Example 19]: the IC50 in experiment [1] is 22 nM; in experiment [2] it was 155 nM.

Regarding `COc1ccccc1Oc1c(NS(C)(=O)=O)ncnc1OCCOc1ncc(S(C)(=O)=O)cn1` [Example 20], the IC50 was 81 nM in experiment [1] and over 1000 nM in experiment [2].

Take `CCCCS(=O)(=O)Nc1nc(-c2ncccn2)nc(OCCOc2ncc(Br)cn2)c1Oc1ccccc1OC` [Example 25]: the IC50 in experiment [1] was 6.5 nM.

Turning to `CCCCS(=O)(=O)Nc1nc(-c2ncccn2)nc(OCCOc2ncc(OC)cn2)c1Oc1ccccc1OC` [Example 26], the results for the IC50 in experiment [1] and in experiment [2] were 19 nM and 881 nM, respectively.

For `CCCCS(=O)(=O)Nc1nc(-c2ncccn2)nc(OCCOc2ncc(SC)cn2)c1Oc1ccccc1OC` [Example 27], the IC50 in experiment [1] was found to be 2.8 nM; in experiment [2], 153 nM.

On to `CCCCS(=O)(=O)Nc1ncnc(OCCOc2ncc(Br)cn2)c1Oc1cccc(OC)c1` [Example 28], for which the IC50 was 2.9 nM in experiment [1] and 595 nM in experiment [2].

With `CCCCS(=O)(=O)Nc1ncnc(OCCOc2ncc(OC)cn2)c1Oc1cccc(OC)c1` [Example 29], the IC50 in experiment [1] turned out to be 8.4 nM; in experiment [2], 402 nM.

Turning to `CCCCS(=O)(=O)Nc1ncnc(OCCOc2ncc(SC)cn2)c1Oc1cccc(OC)c1` [Example 30], the IC50 in experiment [1] was 2.3 nM; in experiment [2], 111 nM.

In the case of `CCCCS(=O)(=O)Nc1ncnc(OCCOc2ncc(S(C)(=O)=O)cn2)c1Oc1cccc(OC)c1` [Example 31], the IC50 amounted to 1.8 nM in experiment [1] and 180 nM in experiment [2].

On to `CCCS(=O)(=O)Nc1ncnc(OCCOc2ncc(Br)cn2)c1Oc1ccccc1OC` [Example 32], for which the IC50 in experiment [1] was 11 nM; in experiment [2], over 1000 nM.

On to `CCCS(=O)(=O)Nc1ncnc(OCCOc2ncc(OC)cn2)c1Oc1ccccc1OC` [Example 33], for which the IC50 in experiment [1] was 40 nM; in experiment [2], over 1000 nM.

Turning to `CCCS(=O)(=O)Nc1ncnc(OCCOc2ncc(SC)cn2)c1Oc1ccccc1OC` [Example 34], the IC50 in experiment [1] was 6.5 nM; in experiment [2], 159 nM.

Regarding `CCCS(=O)(=O)Nc1ncnc(OCCOc2ncc(S(C)(=O)=O)cn2)c1Oc1ccccc1OC` [Example 35], the results for the IC50 in experiment [1] and in experiment [2] were 11 nM and over 1000 nM, respectively.

Take `CCCS(=O)(=O)Nc1ncnc(OCCOc2ncc(Br)cn2)c1-c1ccc(Br)cc1` [Example 70]: in experiment [1], the IC50 turned out to be 0.46 nM.

With `CCCCS(=O)(=O)Nc1ncnc(OCCOc2ncc(Br)cn2)c1-c1ccc(Br)cc1` [Example 81], the IC50 in experiment [1] worked out at 0.54 nM.
